Data from patent US12427151B2, “Compositions and method of treating cancer” (The Regents of the University of California, priority 2017, dated 2025).

How the values were obtained:
[1] = test system: normal human keratinocytes (NHEK); experiment: Cell proliferation assay (BrdU incorporation); format: cell-based; settings: 24-hr incubation, until a very high dose (100 μg/mL)
Method: (§1) (a-b) Selective antiproliferative activity of 6-HAP against Pam212 squamous cell carcinoma, but not against normal keratinocytes. BrdU incorporation into Pam212 cells (b) or NHEKs (b) after 4-hr or 24-hr incubation, respectively, in suitable media containing indicated concentrations of 6-HAP or mitomycin C (10 μg/mL) (a). (c) Expression of mARC1 and mARC2 in NHEKs, squamous cell carcinoma (Pam212), melanoma (B16F10) and lymphoma cell lines (L5178). To compare relative expression level in each cells, data was shown as relative to GAPDH expression. (d) Expression of mARC1 and mARC2 in NHEKs treated with control siRNA, mARCI siRNA and mARC2 siRNA. (e) Effect of gene silencing with mARC1 and mARC2 siRNA on sensitivity to 6-HAP in NHEKs. NHEKs treated with each siRNA were incubated for 48 hrs and then incubated with 10 μg/mL of 6-HAP for 24 hrs.
(§2) Cell culture and cell proliferation assay. B16F10 mouse melanoma, Pam212, L5178 and YAC-1 mouse […] cell lines were obtained from American Type Culture Collection. […] After 4-hr (tumor cell lines) or 24-hr (NHEK) incubation with 6-HAP, proliferative activity of cells was colorimetrically determined by monitoring BrdU incorporation with Cell Proliferation kit according to the manual (Roche).

[2] = test system: NHEKs treated with mARC1 and mARC2 siRNA; experiment: Gene silencing of mARCs with siRNA, sensitivity to 6-HAP; format: cell-based, human; settings: 6-HAP 10 μg/mL for 24 hrs, BrdU incorporation
Method: as §1
Gene silencing of mARCs with siRNA. NHEK was cultured in EpiLife® media containing pre-designed siRNA for mARC1 or mARC2 (Thermo Fisher, Waltham, MA), and RNAiMAX® reagent for 24 hrs. Cells were maintained in EpiLife for 72 hrs, and incubated with 6-HAP (10 μg/mL) for 24 hrs. Anti-proliferative activity of 6-HAP was determined by measuring BrdU incorporation as described above.
In mammalian cells, mitochondrial […] reducing components (mARC) 1 and 2 have shown to be capable of reducing N-hydroxylated nucleobase analogs to canonical nucleobases. […]

GAS = experiment: Antimicrobial activity against GAS in the presence of adenine; format: cell-based, group A Streptococcus; settings: 20 hrs, CFU
Method: (§3) (a) Time course killing of GAS in THB containing 6-HAP (25 μg/mL), mitomycin C (5 μg/mL), or LL-37 (10 μM). At each indicated time point, live GAS in the media was measured by counting CFU on an agar plate. The data represent mean±SE of four individual experiments. (b) Membrane permeability of GAS incubated in THB containing 6-HAP (25 μg/mL), mitomycin C (5 μg/mL) and LL-37 (10 μM) for 1 hr. The bacteria with compromised plasma membranes (Red) can be distinguished from those with intact membranes (Green). (c) BrdU incorporation into nascent DNA of GAS after incubation with 6-HAP (25 μg/mL) or mitomycin C (5 μg/mL) in THB containing BrdU (10 μM) for 30 or 60 min. (d) BrdU incorporation into nascent DNA of S. epidermidis ATCC12228 after incubation with 6-HAP (25 μg/mL) or mitomycin C (5 μg/mL) in THB containing BrdU (10 μM) for 60 min. The data represent mean±SE of five individual experiments (*P<0.05 and **P<0.01 by Student's t-test vs vehicle control). […] Extension reaction was analyzed on a 20% acrylamide gel by electrophoresis (f). […] GAS survival was measured by counting CFU. […]
(§4) We next assessed the effect of 6-HAP on DNA synthesis. […] To directly examine the action of 6-HAP on DNA extension in a cell free system, 25-bp templates and matching 18-bp fluorescence primers were designed to measure DNA extension in vitro by Klenow (exo) DNA polymerase (FIG. 4e).

[3] = test system: Pam212 squamous cell carcinoma; experiment: Cell proliferation assay (BrdU incorporation); format: cell-based, mouse; settings: Pam212, 4-hr incubation
Method: as §1, §2

[4] = test system: Klenow fragment (exo) DNA polymerase; experiment: In vitro DNA polymerization assay; format: biochemical; settings: cell free system, in the presence of 6-HAP
Method: as §3, with “min.” for “min. The data represent mean±SE of five individual experiments (*P<0.05 and **P<0.01 by Student's t-test vs vehicle control).”
In vitro DNA polymerization assay. […] Fluorescence was visualized with Oddyssey Imaging System (LI-COR Biosciences, Lincoln, NE).
as §4

P. acnes ATCC6919 = experiment: MBC determination; format: cell-based, Propionibacterium acnes; settings: Cutibacterium acnes, 3-log reduction, 24 hour, 37° C., half strength MHB in PBS

ONc1ncnc2nc[nH]c12 [6-HAP, 6-N-hydroxyaminopurine]
BrdU incorporation [1]: not affected
cellular sensitivity to 6-HAP after mARC1 and mARC2 gene silencing [2]: increased cellular sensitivity
antimicrobial activity against GAS on addition of excessive adenine (GAS): partially decreased
BrdU incorporation [3]: inhibited
DNA extension, template requiring adenosine (X=T) [4]: lack of extension
DNA extension, template requiring cytosine (X=G) [4]: synthesis of the expected extended DNA product
MBC (P. acnes ATCC6919): > 100 µg/mL
